{
  "source": "patent US12180138B2",
  "about": "“Lipid nanoparticle compositions for delivering circular polynucleotides” (Orna Therapeutics, Inc., priority 2021, dated 2024)",
  "key": {"[1]": {"system": "splenic immune cells (T cells, myeloid cells, B cells, NK cells)", "assay": "mOX40L expression in splenic immune cells after IV LNP-circular RNA (flow cytometry)", "type": "in vivo, C57BL/6 mice", "details": "1 mg/kg intravenously, 24 hours; IL:P 5.7; vs Lipid 15 of Table 10f", "protocol": "The ionizable lipid:helper lipid:cholesterol:PEG-lipid molar ratio of these LNPs was 50:10:38.5:1.5. Dialysis of the LNPs were performed using PBS. C57BL/6 female mice (6-8 weeks, n=4) were dosed at either LNP comprising Lipid 1 of Table 10e or the Lipid 15 of Table 10f at 1 mg/kg intravenously. At 24 hours, the spleen from the mice were collected for flow cytometry analysis. mOX40L transfection of Lipid 1 of Table 10e and Lipid 15 of Table 10f were compared in T cells, myeloid cells, B cells, and NK cells."}, "[2]": {"system": "splenic T cells", "assay": "mOX40L expression in splenic T cells after IV LNP-circular RNA", "type": "in vivo, C57BL/6 mice", "details": "1 mg/kg intravenously, 24 hours", "protocol": "The ionizable lipid:helper lipid: cholesterol:PEG-lipid molar ratio of these LNPs was 50:10:38.5:1.5. C57BL/6 female mice (6-8 weeks, n=4) were dosed at 1 mg/kg intravenously. At 24 hours, the spleen from the mice were collected for flow cytometry analysis, tested for weight loss and measured for serum alanine aminotransferase (ALT) after blood collection. mOX40L expression was measured in splenic T cells."}},
  "data": [
    {"smiles": "CCCCCCCCCCCCC(O)CN(CCCO)CCCCCCCC(=O)OC(CCCCCCCC)CCCCCCCC", "note": "(centres unmarked) [Lipid 1 of Table 10e, heptadecan-9-yl 8-((3-hydroxypropyl)(2-hydroxytetradecyl)amino)octanoate]", "values": [
      {"measurement": "mOX40L transfection in splenic immune cells", "setting": "[1]", "value": "comparable or higher levels of mOX40L transfection"},
      {"measurement": "mOX40L expression in splenic T cells", "setting": "[2]", "value": "expression of mOX40L in splenic T cells"}
    ]}
  ]
}
